Like-named read-outs stand apart in the source and are kept apart here.
How the values were obtained:
Human SIRT1 = molecular target: T1, Human SIRT1 (Homo sapiens, UniProt Q96EB6); test: SIRT1 mass spectrometry deacetylase assay; type: biochemical
T1 construct: hexa-histidine (N); made in house; host or cells: E. coli BL21(DE3)Star
T1 sequence (Q96EB6 1-747): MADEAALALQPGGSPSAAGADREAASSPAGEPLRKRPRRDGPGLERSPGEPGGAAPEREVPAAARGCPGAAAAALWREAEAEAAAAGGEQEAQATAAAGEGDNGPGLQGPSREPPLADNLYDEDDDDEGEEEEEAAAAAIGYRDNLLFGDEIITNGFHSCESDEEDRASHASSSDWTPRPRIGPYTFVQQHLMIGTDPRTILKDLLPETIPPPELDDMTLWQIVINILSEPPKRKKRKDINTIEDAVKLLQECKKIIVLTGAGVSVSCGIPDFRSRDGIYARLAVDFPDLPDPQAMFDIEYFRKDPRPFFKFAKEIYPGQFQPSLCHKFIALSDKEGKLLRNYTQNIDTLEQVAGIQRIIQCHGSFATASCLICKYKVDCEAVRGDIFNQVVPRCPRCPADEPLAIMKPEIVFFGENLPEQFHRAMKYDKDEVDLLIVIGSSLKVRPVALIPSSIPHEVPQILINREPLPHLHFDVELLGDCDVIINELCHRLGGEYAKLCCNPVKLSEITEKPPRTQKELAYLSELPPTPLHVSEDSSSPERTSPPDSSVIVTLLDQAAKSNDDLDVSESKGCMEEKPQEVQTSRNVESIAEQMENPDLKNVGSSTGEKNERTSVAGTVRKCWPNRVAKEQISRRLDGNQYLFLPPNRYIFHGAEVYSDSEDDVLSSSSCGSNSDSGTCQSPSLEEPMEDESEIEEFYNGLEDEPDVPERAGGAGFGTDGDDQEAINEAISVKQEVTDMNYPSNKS
Excerpt: The following example describes methods for the identification and characterization of Sirt1 activators. Human SIRT1 is expressed from the pSIRT1FL vector which places expression under the control of the T7 promoter. The protein was expressed in E. coli BL21(DE3)Star as an N-terminal fusion to a hexa-histidine affinity tag. The expressed protein was purified by Ni^2+-chelate chromatography. The eluted protein was then purified by size exclusion chromatography followed by ion exchange. The resulting protein was typically >95% pure as assessed by SDS-PAGE analysis. The mass spectrometry based assay utilizes a peptide having 20 amino acid residues as follows: Ac-Glu-Glu-Lys(Biotin)-[…]Ac)-Nle-Ser-Thr-Glu-Gly-Lys(5TMR)-Glu-Glu-NH2 (SEQ ID NO:2) wherein K(Ac) is an acetylated lysine residue and Nle is a norleucine. The peptide is labeled with the fluorophore 5TMR (excitation 540 nm/emission 580 nm) at the C-terminus for use in the FP assay described above. The sequence of the peptide substrate is based on p53 with several modifications.
The mass spectrometry assay was conducted as follows: 0.5 μM peptide substrate and 120 μM βNAD^+ was incubated with 10 nM SIRT1 for 25 minutes at 25° C. in a reaction buffer (50 mM Tris-acetate pH 8, 137 mM NaCl, 2.7 mM KCl, 1 mM MgCl2, 5 mM DTT, 0.05% BSA). Test compounds were added to the reaction or vehicle control, DMSO. After the incubation with SIRT1, 10% formic acid was added to stop the reaction. Determination of the mass of the substrate peptide allows for precise determination of the degree of acetylation (i.e. starting material) as compared to deacetylated peptide (product).
The activity of an exemplary compound against SIRT1 enzyme was profiled using a mass spectrometry readout. In this assay the conversion of acetylated peptide substrate to deacetylated peptide product is tracked by monitoring the change in mass ([…]) upon loss of the acetyl group. […]

[1] = Plasma exposure after oral gavage in mice; type: in vivo, C57BL/6 mice; details: 100 mg/kg once daily by oral gavage, each day
Description: The following example describes the in vivo effects of a novel SIRT1 activator. The compound was administered via oral gavage at the doses indicated in FIG. 2a in […] male mice, 18-22 grams (Wilmington, Mass. Charles River Labs), 3 mice per group and blood plasma was collected at 5, 30, 120 and 360 minute time points. The compound was administered in 2% HPMC+0.2% DOSS. Mice were sacrificed at proper time points using CO2 overdose (place in CO2 chamber 40 seconds before time point). Blood was collected in microtainer blood tubes with Lithium Heparin and plasma separator and frozen plasma was sent to Charles River Labs (CRL) for analysis. To determine oral bioavalability, the compound was administered into the tail vein at 0.1, 0.3 and 1.0 mg/kg doses in C57BL/6 male mice, 18-22 grams (Wilmington, Mass. Charles River Labs), 3 mice per group and blood plasma was collected at 5, 30, 120 and 360 minute time points. Compounds were administered in 10% ethanol/ 40% Polyethylene glycol/50% H2O for IV studies. Mice were sacrificed at proper time points using CO2 overdose (place in CO2 chamber 40 seconds before time point). Blood was collected and analyzed as described above.

[2] = system: diet induced obese (DIO) mouse; test: Diet Induced Obesity (DIO) mouse model; type: in vivo, C57BL/6 mice; details: for plasma insulin: SRT1933 100 mg/kg, rosiglitazone 5 mg/kg once daily oral
Description: The vehicle used was 2% HPMC −0.2% DOSS. Individual mouse body weights were measured twice weekly. Every 2 weeks throughout the study, mice from each group were bled via the tail vein for determination of blood glucose and blood plasma insulin. After 1, 3 and 5 weeks of dosing, a fasted blood glucose measure was taken and after 5 weeks of treatment an IPGTT was conducted on all mice from each of the groups. After 9 weeks of treatment, an ITT was conducted and a rectal body temperature was taken on all mice from each of the groups. Statistical analysis was completed using the JMP program (Version 6). Data were analyzed by a one way ANOVA with comparison to control using a Dunnett's Test. A p value <0.05 indicated a significant difference between groups.

[3] = system: citrate synthase activity (mitochondrial capacity); test: Citrate synthase activity in tissues of treated DIO mice; type: in vivo, C57BL/6 mice
Description: Citrate synthase (CS) activity in skeletal muscle (gastrocnemius) and white adipose tissue (epididymal) was determined after 11 weeks of treatment using the method described by Srere (Citrate synthase, Methods Enzymol. 1969, 13: 3-5) and Moyes et al. (Moyes CD, Mathieu-Costello 0A, Tsuchiya N, Filbum C, and Hansford RG. Mitochondrial biogenesis during cellular differentiation. Am. J. Physiol. 1997, 272 (Cell Physiol. 41): C1345-C1351.
Citrate Synthase is an enzyme of the Krebs cycle (also called […], TCA, or citric acid) cycle whose maximal activity (capacity) reflects mitochondrial oxidative capacity of the sample (Holloszy et al. 1970, Williams et al. 1986, Hood et al. 1989). […] Irrespective of this latter remark, changes in citrate synthase activity over time in a given individual reflect changes in tissue mitochondrial oxidative capacity. The five mice best representing the mean fasting blood glucose level of each group (DIO Vehicle and DIO SRT1933) were selected for this analysis. The tissues were lyzed in lx Extraction Buffer (20 mM N-2-hydroxyethylpiperazine-N′-2-2ethanesulfonic acid (HEPES), pH 7.2, 0.1% Triton X-100 and 1 mM EDTA with a polytron tissue homogenizer (OMNI International GLH) for 30 seconds at maximum speed (setting 6) on ice. A low-speed (13,000 rpm, microfuge) centrifugation step was then used to pellet big cell debris. The supernatant was used to assess citrate synthase activity. The samples are freeze-thawed 2 times to break the mitochondrial membrane and allow access to citrate synthase. Sample protein concentrations were determined according to the supplier's instructions, with Bio-Rad Protein Assay Dye Reagent Concentrate (cat#500-0006, […]) with Protein Standard I, bovine gamma globulin (cat#500-0005, […]) as standard. The citrate synthase activity assay was performed in a final total volume of 300 μl with 100 μg of protein per sample, measured in triplicate.
Citrate synthase catalyzes the reaction between acetyl coenzyme A (acetyl CoA) and oxaloacetic acid (OAA) to form citric acid. […]

[4] = system: diet induced obese (DIO) mouse; test: Diet Induced Obesity (DIO) mouse model; type: in vivo, C57BL/6 mice; details: DIO mice

Row | Compound | Emax (Human SIRT1; at the highest doses of compound tested, read-out: maximum activation) [%] | EC1.5 (Human SIRT1; read-out: EC1.5 (concentration of compound required to increase enzyme activity by 50%), mass spectrometry readout, 10 nM SIRT1, 0.5 μM peptide substrate, 120 μM βNAD+) [nM] | EC1.5 (Human SIRT1; read-out: EC1.5, as quoted in legend of FIG. 2a) [nM] | duration of exposure above EC1.5 [1] | nonfasting blood glucose levels ([2]; DIO mice, 100 mg/kg once daily oral, by week 2, maintained over 10 week period) | insulin sensitivity relative to vehicle assessed by ITT ([2]; DIO mice, ITT after 9 weeks of treatment) | fasting blood glucose levels ([2]; DIO mice, once daily oral dosing) | plasma insulin ([2]; DIO mice) [ng/mL] | body temperature ([2]; SRT1933 treated groups (FIG. 2f)) | lowering of core body temperature ([2]; both DIO mice and normal chow fed mice) [°C] | effect on insulin levels ([2]; mice fed a normal chow diet, over the course of the study) | increase in citrate synthase activity ([3]; gastrocnemius muscle, DIO mice, after 11 weeks of treatment) [%] | citrate synthase activity in adipose tissue ([3]; n=5, after 11 weeks (FIG. 2g)) | mitochondrial capacity (citrate synthase activity) in skeletal muscle ([3]; n=5, after 11 weeks (FIG. 2g)) | glucose tolerance in an OGTT relative to vehicle [4] | glucose excursion in OGTT (AUC) ([4]; after 5 weeks of treatment, SRT1933 100 mg/kg, rosiglitazone 5 mg/kg once daily oral) [mg·h/dL]
1 | O=C(Nc1ccccc1-c1cn2c(CN3CCNCC3)csc2n1)c1cnc2ccccc2n1 [SRT1933] | > 900 | 160 | 440 | at least 16 hours | normalized | improvement in insulin sensitivity | normalized | 2.1 ± 0.1 | decreased | ~1 | did not have a significant effect | 15 | trend | significant increase | improved glucose tolerance | 462 ± 25
2 | CN(CCOc1ccc(CC2SC(=O)NC2=O)cc1)c1ccccn1 (centres unmarked) [rosiglitazone, reference compound] | – | – | – | – | – | – | – | 0.9 ± 0.1 | – | – | – | – | – | – | – | –
